Results from patent US10561704B2, “Compositions and methods for treating neuropsychiatric disorders using an endothelin-B receptor agonist” (MIDWESTERN UNIVERSITY, priority 2013, dated 2020).
*1 amine or outer side, *2 acyl side, *3 side chain or, on linkers, in order; H or OH if unused. Where no end group is shown, it is not given here. Suc = O=C(CCC(=O)[*:2])[*:1]

Assays:
[1] = test system: Aβ treated non-diabetic and diabetic rats; assay: Morris water maze test for cognitive impairment in Aβ treated rats; assay type: in vivo, Sprague-Dawley rats
Experimental: Amyloid-β (1-40) (Tocris Bioscience, Ellisville, Mo., USA), IRL-1620 [N-Succinyl-[Glu9, Ala11,15] endothelin 1] (American Peptide Co, Inc., Sunnyvale, Calif., USA) and BQ788 (American Peptide Co, Inc., Sunnyvale, Calif., USA) were dissolved in sterile saline and all the solutions were freshly prepared before injections. Ketamine (Butler Animal Health Supply, Dublin, Ohio, USA) was administered at a dose of 100 mg/kg, intraperitoneally (i.p.), and xylazine (Lloyd Laboratories, Shenandoah, Iowa, USA) was administered at a dose of 10 mg/kg, i.p. Rats were anesthetized with ketamine (100 mg/kg) and xylazine (10 mg/kg) and a lateral cerebral ventricle was cannulated by placing the rat in a stereotaxic (David Kopf Instruments, Tujunga, Calif., USA) instrument and fixing the cannula (coordinates: 1.0 mm lateral, 1.5 mm caudal to bregma and 4.0 mm deep from the bone). Cannula (Plastics One, Roanoke, Va., USA) was anchored with dental acrylic to three screws placed in the skull. The animals were allowed to recover from surgery for at least seven days. After 7 days, rats were treated with vehicle, Aβ (1-40), ETB receptor agonist and/or antagonist in the lateral cerebral ventricles using the implanted cannula. Vehicle, Aβ or ETB receptor agonist and antagonist were injected in a volume of 5 μl over a period of 5 minutes. Aβ (1-40) was used because it is highly soluble compared to Aβ (1-42) and induces endothelial dysfunction of both cerebral and systemic blood vessels in addition to memory deficit (Nitta et al., 1994; Niwa et al., 2000; Smith et al., 2004; Weller et al., 1998). Agents were delivered using 10 μl Hamilton syringe and agent treatments were carried out individually using separate 10 μl syringe. IRL-1620 was administered 1 hour after Aβ injection whereas BQ788 was administered 15 minutes prior to IRL-1620 injection. At the end of the experiment, placement of cannula was confirmed by injecting methylene blue dye (5 μl) and observing the site and extent of staining. All experiments were performed on day 15 (Briyal et al., 2011). Water maze testing was performed from day 15 to day 19 after which animals were euthanized. Animals used for oxidative stress measurements were euthanized on day 15 without being subjected to any behavioral testing. Diabetes mellitus type 2 was induced in rats belonging to the diabetic group by administering freshly prepared streptozotocin at the dose of 45 mg/kg, i.p. Streptozotocin was dissolved in 0.01 M sodium citrate buffer of pH 4.3. On day 3, blood glucose was obtained from the rat-tail and tested for hyperglycemia using the SureStep Complete Blood Glucose monitor kit. Rats with blood glucose levels above 11.1 mM were considered diabetic. Diabetic and non-diabetic animals were randomly divided into five groups (6 rats per group) (i) Sham, (ii) Aβ+Vehicle, (iii) Aβ+IRL-1620, (iv) Aβ+BQ788 (v) Aβ+BQ788+IRL-1620. Aβ (1-40) was administered intracerebroventricularly (i.c.v.) (20 μg in 3 equally divided doses i.e. 6.67 μg were injected 3 times for a total of 20 μg dose) on day 1, 7, and 14. Specific ETB receptor agonist, IRL-1620 (3 μg) and specific ETB receptor antagonist, BQ788 (10 μg) were administered i.c.v. daily for 14 days starting from day 1 of Aβ injection. The doses of IRL-1620 and BQ788 were selected on the basis of previous studies conducted in our laboratory (Leonard et al., 2011).
Spatial learning and memory of animals were tested in a MWM (Morris, 1984). […]

[2] = test system: middle cerebral artery occluded rats; assay: 7 day survival following focal cerebral ischemia (MCAO); assay type: in vivo
Experimental: FIG. 13: Effect of ETB receptor agonist, IRL-1620, in presence and absence of BQ788 on 7 day survival of rats undergoing either sham surgery or middle cerebral artery occlusion.
Effect of IRL-1620 on 7 day survival of rats following focal cerebral ischemia: Studies were also conducted to determine the effect of stimulating ETB receptors using a selective agonist, IRL-1620, in rats with middle cerebral artery occlusion (MCAO). […] However, MCAO rats in the vehicle treated group presented with 38% mortality by 7th day. […] Preliminary results and supporting literature have prompted the investigation of the mechanism involved in neuroprotective and neurorestorative effects of stimulating ETB receptors in rats with cerebral ischemia.

Compound | Improvement in escape latency produced by IRL-1620 ([1]; Aβ rats, BQ788 given with IRL-1620) | Time spent in the target quadrant, probe trial ([1]; Aβ treated rats given BQ788) | Mortality during 7 day observation [2] | Escape latency, water maze acquisition ([1]; Aβ treated rats, day 3 and 4 of training, vs Aβ + vehicle) | Path length, water maze acquisition ([1]; Aβ treated rats, vs vehicle group) | Time spent in the target quadrant, probe trial ([1]; Aβ treated rats, vs vehicle treated Aβ rats)
CCCC[C@@H](NC(=O)[C@@H](Cc1cn(C(=O)OC)c2ccccc12)NC(=O)[C@H](CC(C)(C)C)NC(=O)N1[C@H](C)CCC[C@@H]1C)C(=O)O [BQ788, reference compound] | blocked | did not produce any improvement | 25% |  |  | 
Suc-Asp-Glu-Glu-Ala-Val-Tyr-Phe-Ala-His-Leu-Asp-Ile-Ile-Trp (Suc-DEEAVYFAHLDIIW) [IRL-1620] |  |  | no mortality | decreased significantly | shorter path lengths | increased
